In patent US9833497B2, “Human originated EGF domain proteins and use of the same” (CHENGDU SOURCEBIO LIMITED-LIABILITY COMPANY, priority 2013, dated 2017):

Legend:
Type in all cases: cell-based
Pseudomonas aeruginosa = assay: MIC against Gram-negative bacteria: Pseudomonas aeruginosa
Procedure, shortened: (§1)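 Inocula prepared by growing LB cultures at 37° C to 0.5 McFarland, centrifuging at 4000×g, and resuspending in fresh medium. Final density 5×10^5 CFU/mL per well with two-fold dilutions of purified EGF domain protein; shaking incubation at 37° C.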

Proteus mirabilis = assay: MIC against Gram-negative bacteria: Proteus mirabilis
Procedure, shortened: as §1

E. coli DH5α = assay: Antibacterial activity: MIC and growth curve against E. coli DH5α in 96-well plate; conditions: minimal inhibitory concentration against E. coli DH5α; 96-well plate, 5×10^5 CFU/mL, 37° C., judged after 8 h
Procedure, shortened: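 Log-phase bacteria (OD600 ~0.5) resuspended in LB at 5×10^5 CFU/mL, exposed to recombinant protein at 50, 25, 12.5 μg/mL final in triplicate, 37 °C shaking at 175 rpm. OD600 read every 30 min; MIC is lowest concentration showing no growth.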

Klebsiella pneumonia = assay: MIC against Gram-negative bacteria: Klebsiella pneumonia
Procedure, shortened: as §1

Serratia marcescens = assay: MIC against Gram-negative bacteria: Serratia marcescens
Procedure, shortened: as §1

Proteus vulgaris = assay: MIC against Gram-negative bacteria: Proteus vulgaris
Procedure, shortened: as §1

Moraxella catarrhalis = assay: MIC against Gram-negative bacteria: Moraxella catarrhalis
Procedure, shortened: as §1

Citrobacter diversus = assay: MIC against Gram-negative bacteria: Citrobacter diversus
Procedure, shortened: as §1

E. coli BL21 = assay: MIC against Gram-negative bacteria: E. coli BL21
Procedure, shortened: as §1

Aeromonas hydrophila = assay: MIC against Gram-negative bacteria: Aeromonas hydrophila
Procedure, shortened: as §1

Enterobacter cloacae = assay: MIC against Gram-negative bacteria: Enterobacter cloacae
Procedure, shortened: as §1

[1] = P. aeruginosa, 10 h cultivation at 37° C., 5×10^5 CFU/mL
[2] = P. mirabilis, 10 h cultivation at 37° C., 5×10^5 CFU/mL
[3] = K. pneumonia, 10 h cultivation at 37° C., 5×10^5 CFU/mL
[4] = S. marcescens, 10 h cultivation at 37° C., 5×10^5 CFU/mL
[5] = P. vulgaris, 10 h cultivation at 37° C., 5×10^5 CFU/mL
[6] = M. catarrhalis, 10 h cultivation at 37° C., 5×10^5 CFU/mL
[7] = C. diversus, 10 h cultivation at 37° C., 5×10^5 CFU/mL
[8] = E. coli BL21, 10 h cultivation at 37° C., 5×10^5 CFU/mL
[9] = A. hydrophila, 10 h cultivation at 37° C., 5×10^5 CFU/mL
[10] = E. cloacae, 10 h cultivation at 37° C., 5×10^5 CFU/mL
[11] = 96-well plate, 5×10^5 CFU/mL, 37° C., 10 h

For “PRT1338 (EMDPCTGLTPGGCSRNAECIKTGTGTHTCVCQQGWTGNGRDCS; listed as Homo sapiens)”, the “MIC against P. aeruginosa” value (Pseudomonas aeruginosa; Pseudomonas aeruginosa, 96-well plate, 5×10^5 CFU/mL, 37° C., 10 h) was 12.5 µg/mL, the “MIC against P. mirabilis” value (Proteus mirabilis; Proteus mirabilis, 96-well plate, 5×10^5 CFU/mL, 37° C., 10 h) was 12.5 µg/mL and the MIC (E. coli DH5α) was 50 µg/mL. For the same substance, the “MIC against K. pneumonia” value (Klebsiella pneumonia; Klebsiella pneumonia, 96-well plate, 5×10^5 CFU/mL, 37° C., 10 h) was 25 µg/mL, the “MIC against S. marcescens” value (Serratia marcescens; Serratia marcescens, 96-well plate, 5×10^5 CFU/mL, 37° C., 10 h) was 25 µg/mL and the “MIC against P. vulgaris” value (Proteus vulgaris; Proteus vulgaris, 96-well plate, 5×10^5 CFU/mL, 37° C., 10 h) was 12.5 µg/mL. The “MIC against M. catarrhalis” value (Moraxella catarrhalis; Moraxella catarrhalis, 96-well plate, 5×10^5 CFU/mL, 37° C., 10 h) was 12.5 µg/mL, the “MIC against C. diversus” value (Citrobacter diversus; Citrobacter diversus, 96-well plate, 5×10^5 CFU/mL, 37° C., 10 h) was 12.5 µg/mL and the “MIC against E. coli BL21” value (E. coli BL21; E. coli BL21, 96-well plate, 5×10^5 CFU/mL, 37° C., 10 h) was 25 µg/mL. The “MIC against A. hydrophila” value (Aeromonas hydrophila; Aeromonas hydrophila, 96-well plate, 5×10^5 CFU/mL, 37° C., 10 h) was 12.5 µg/mL and the “MIC against E. cloacae” value (Enterobacter cloacae; Enterobacter cloacae, 96-well plate, 5×10^5 CFU/mL, 37° C., 10 h) was 50 µg/mL.
For “PRT166 (NGSPCQHGGTCVDDEGRASHASCLCPPGFSGNFCE; listed as Homo sapiens)”, the “MIC (μg/mL) P. aeruginosa” value (Pseudomonas aeruginosa; [1]) was 12.5 µg/mL, the “MIC (μg/mL) P. mirabilis” value (Proteus mirabilis; [2]) was 12.5 µg/mL and the MIC (E. coli DH5α) was 12.5 µg/mL. The “MIC (μg/mL) K. pneumonia” value (Klebsiella pneumonia; [3]) was 25 µg/mL, the “MIC (μg/mL) S. marcescens” value (Serratia marcescens; [4]) was 50 µg/mL and the “MIC (μg/mL) P. vulgaris” value (Proteus vulgaris; [5]) was 12.5 µg/mL. The “MIC (μg/mL) M. catarrhalis” value (Moraxella catarrhalis; [6]) was 12.5 µg/mL, the “MIC (μg/mL) C. diversus” value (Citrobacter diversus; [7]) was 12.5 µg/mL and the “MIC (μg/mL) E. coli BL21” value (E. coli BL21; [8]) was 25 µg/mL. The “MIC (μg/mL) A. hydrophila” value (Aeromonas hydrophila; [9]) was 12.5 µg/mL and the “MIC (μg/mL) E. cloacae” value (Enterobacter cloacae; [10]) was 12.5 µg/mL.
With “PRT854 (TCSMANCQYGCDVVKGQIRCQCPSPGLQLAPDGRTCV; listed as Homo sapiens)” the “MIC (μg/mL) P. aeruginosa” value (Pseudomonas aeruginosa; [1]) was 100 µg/mL, the “MIC (μg/mL) P. mirabilis” value (Proteus mirabilis; [2]) was 12.5 µg/mL and the MIC (E. coli DH5α) was 12.5 µg/mL. For the same substance, the “MIC (μg/mL) K. pneumonia” value (Klebsiella pneumonia; [3]) was 12.5 µg/mL, the “MIC (μg/mL) S. marcescens” value (Serratia marcescens; [4]) was 12.5 µg/mL and the “MIC (μg/mL) P. vulgaris” value (Proteus vulgaris; [5]) was 50 µg/mL. For the same substance, the “MIC (μg/mL) M. catarrhalis” value (Moraxella catarrhalis; [6]) was 50 µg/mL, the “MIC (μg/mL) C. diversus” value (Citrobacter diversus; [7]) was 12.5 µg/mL and the “MIC (μg/mL) E. coli BL21” value (E. coli BL21; [8]) was 12.5 µg/mL. The “MIC (μg/mL) A. hydrophila” value (Aeromonas hydrophila; [9]) was 12.5 µg/mL and the “MIC (μg/mL) E. cloacae” value (Enterobacter cloacae; [10]) was 12.5 µg/mL.
“PRT171 (CDPSPCKNGGSCTDLENSYSCTCPPGFYGKIC; listed as Homo sapiens)” was tested, and the “MIC (μg/mL) P. aeruginosa” value (Pseudomonas aeruginosa; [1]) was 25 µg/mL, the “MIC (μg/mL) P. mirabilis” value (Proteus mirabilis; [2]) was 25 µg/mL and the MIC (E. coli DH5α) was 25 µg/mL. The “MIC (μg/mL) K. pneumonia” value (Klebsiella pneumonia; [3]) was 12.5 µg/mL, the “MIC (μg/mL) S. marcescens” value (Serratia marcescens; [4]) was 25 µg/mL and the “MIC (μg/mL) P. vulgaris” value (Proteus vulgaris; [5]) was 50 µg/mL. For the same substance, the “MIC (μg/mL) M. catarrhalis” value (Moraxella catarrhalis; [6]) was 12.5 µg/mL, the “MIC (μg/mL) C. diversus” value (Citrobacter diversus; [7]) was 25 µg/mL and the “MIC (μg/mL) E. coli BL21” value (E. coli BL21; [8]) was 50 µg/mL. For the same substance, the “MIC (μg/mL) A. hydrophila” value (Aeromonas hydrophila; [9]) was 50 µg/mL and the “MIC (μg/mL) E. cloacae” value (Enterobacter cloacae; [10]) was 25 µg/mL.
For “PRT653 (DVDECEDPQSSCLGGECKNTVGSYQCLCPQGFQLANGTVCE; listed as Homo sapiens)”, the “MIC P. aeruginosa” value (Pseudomonas aeruginosa; [11]) was 25 µg/mL, the “MIC P. mirabilis” value (Proteus mirabilis; [11]) was 12.5 µg/mL and the MIC (E. coli DH5α) was 25 µg/mL. For the same substance, the “MIC K. pneumonia” value (Klebsiella pneumonia; [11]) was 50 µg/mL, the “MIC S. marcescens” value (Serratia marcescens; [11]) was 25 µg/mL and the “MIC P. vulgaris” value (Proteus vulgaris; [11]) was 50 µg/mL. The “MIC M. catarrhalis” value (Moraxella catarrhalis; [11]) was 25 µg/mL, the “MIC C. diversus” value (Citrobacter diversus; [11]) was 50 µg/mL and the “MIC E. coli BL21” value (E. coli BL21; [11]) was 12.5 µg/mL. The “MIC A. hydrophila” value (Aeromonas hydrophila; [11]) was 12.5 µg/mL and the “MIC E. cloacae” value (Enterobacter cloacae; [11]) was 25 µg/mL.
“PRT968 (LEDPCHSGPCAGRGVCQSSVVAGTARFSCRCPRGFRGPDCS; listed as Homo sapiens)” showed an MIC (Pseudomonas aeruginosa; P. aeruginosa, 10 h cultivation at 37° C.) of 25 µg/mL, an MIC (Proteus mirabilis; P. mirabilis, 10 h cultivation at 37° C.) of 50 µg/mL and an MIC (E. coli DH5α) of 25 µg/mL. The MIC (Klebsiella pneumonia; K. pneumonia, 10 h cultivation at 37° C.) was 12.5 µg/mL, the MIC (Serratia marcescens; S. marcescens, 10 h cultivation at 37° C.) was 12.5 µg/mL and the MIC (Proteus vulgaris; P. vulgaris, 10 h cultivation at 37° C.) was 25 µg/mL. It also gave an MIC (Moraxella catarrhalis; M. catarrhalis, 10 h cultivation at 37° C.) of 25 µg/mL, an MIC (Citrobacter diversus; C. diversus, 10 h cultivation at 37° C.) of 12.5 µg/mL and an MIC (E. coli BL21; E. coli BL21, 10 h cultivation at 37° C.) of 12.5 µg/mL. The MIC (Aeromonas hydrophila; A. hydrophila, 10 h cultivation at 37° C.) was 25 µg/mL and the MIC (Enterobacter cloacae; E. cloacae, 10 h cultivation at 37° C.) was 25 µg/mL.
For “PRT630 (CQCSGNVDPNAVGNCDPLSGHCLRCLHNTTGDHCEHCQEGFYGSALAPRPADKCMP; listed as Homo sapiens)”, the “MIC P. aeruginosa” value (Pseudomonas aeruginosa; [11]) was 12.5 µg/mL, the “MIC P. mirabilis” value (Proteus mirabilis; [11]) was 12.5 µg/mL and the MIC (E. coli DH5α) was 50 µg/mL. For the same substance, the “MIC K. pneumonia” value (Klebsiella pneumonia; [11]) was 25 µg/mL, the “MIC S. marcescens” value (Serratia marcescens; [11]) was 12.5 µg/mL and the “MIC P. vulgaris” value (Proteus vulgaris; [11]) was 25 µg/mL. The “MIC M. catarrhalis” value (Moraxella catarrhalis; [11]) was 25 µg/mL, the “MIC C. diversus” value (Citrobacter diversus; [11]) was 12.5 µg/mL and the “MIC E. coli BL21” value (E. coli BL21; [11]) was 25 µg/mL. For the same substance, the “MIC A. hydrophila” value (Aeromonas hydrophila; [11]) was 25 µg/mL and the “MIC E. cloacae” value (Enterobacter cloacae; [11]) was 12.5 µg/mL.
